{"source": "patent US20020166149A1", "about": "“Sustained totipotent regenerable tissue culture of Arundo donax (Giant Reed) and totipotent tissue and plants produced therefrom” (priority 2001, published 2002)", "key": {"A. donax explants": {"system": "A. donax explants", "assay": "Phosphinothricin selection of explants on solid selective medium", "assay_type": "cell-based, Arundo donax L.", "settings": "10 mg/l", "experimental": "Cross-sectional segment of immature A. donax inflorescence were prepared and cultivated as described in Example 2. The totipotent tissue was cocultivated with Agrobacterium tumefaciens carrying plasmid pMSF3022, which carried the bar gene for positive selection in plant cells. The gene confers resistance to the antibiotic/herbicide phosphinothricin.\nCocultivation was carried out in 6 ml. of liquid primary culture medium for four days in the dark at room temperature. Explants were then rinsed with liquid medium and placed on solid selective and non-selective control medium containing the antibiotic/herbicide phosphinothricine at 10 mg/l. All medium contained tidarcillin at 400 mg/l to eliminate residual A. tumefaciens. Controls include explants incubated without A. tumefaciens. […] This can be contrasted with control explants (which were not contacted with A. tumefaciens) that were killed by 10 mg/l of phosphinothricin (FIG. 3A). Also shown are control explants that have developed callus in the absence of phosphinothricin (FIG. 3B), and cocultivated explants that have developed callus in the absence of phosphinothricin (FIG. 3D)."}, "A. donax plants (roots)": {"system": "A. donax plants (roots)", "assay": "Trichloroethene challenge of cloned plants in phytoreactor", "assay_type": "in vivo, Arundo donax L.", "settings": "0.25 mM in hydroponic solution; after recovery period of 3 to 4 weeks", "experimental": "Sustained titopotent cultures of A donax were grown as described in Example 2, and cloned plants derived from the titopotent tissues were established in a standard liquid hydroponic solution in plastic tubs (Shown in FIG. 4A). In one phytoreactor tub, trichloroethene (trichloroethylene) was added to a concentration of 0.25 mM. This was believed to be a high concentration of the organic material, because the allowable EPA concentration is 0.005 mg/l."}}}
{"smiles": "CP(=O)(O)CC[C@H](N)C(=O)O", "note": "[phosphinothricin]", "values": [{"measurement": "effect on explants cocultivated with Agrobacterium tumefaciens (bar gene)", "setting": "A. donax explants; cocultivated explants", "result": "development of herbicide resistant embryogenic tissue"}, {"measurement": "effect on control explants", "setting": "A. donax explants; control explants not contacted with A. tumefaciens", "result": "killed"}]}
{"smiles": "ClC=C(Cl)Cl", "note": "[trichloroethene]", "values": [{"measurement": "state of roots after challenge", "setting": "A. donax plants (roots)", "result": "fully recovered"}]}
